Experimental data taken from patent US8299040B2, “Methods for treating cancer targeting transglutaminase” (Board of Regents, The University of Texas System, priority 2006, dated 2012).

Columns and labels:
Type in all cases: cell-based, human
TG2 [1] = assay: TG2 protein expression in MDA-Panc28 cells (western blot); settings: 48 h
Description: (A) Cells at 80% confluence were treated with 1 μM, 2 μM or 4 μM rottlerin. After 48 h of treatment, the cells were lysed and cell lysates were fractionated by sodium dodecyl sulfate polyacrylamide gel electrophoresis (SDS-PAGE) and transferred onto nitrocellulose membrane to determine PKCδ and TG2 protein expression by western blot analysis. The membrane was stripped and reprobed with an anti-β-actin antibody to confirm equal loading of protein in each lane. (B) Total RNA was extracted, and transcript levels of TG2 and β-actin were determined by RT-PCR analysis as described in Materials and Methods. Relative expression levels were determined by densitometry as compared with β-actin. Experiments were repeated at least three times.
(§1) After treatment, the cells were collected and centrifuged, and whole-cell lysates were obtained using a lysis buffer. Total protein concentration was determined using a DC protein assay kit (Bio-Rad, Hercules, Calif., USA). […] Mouse anti-β-actin and donkey anti-mouse secondary antibody were purchased from Sigma Chemical (St. Louis, Mo., USA) so that β-actin expression could be monitored to ensure equal loading of proteins. […] The blots were visualized with a Fluor Chem 8900 imager and quantified by a densitometer using the Alpha Imager application program (Alpha Innotech). […]

[2] = tested on: MDA-Panc28, Capan-2, Bx-PC3, Panc1 and MIAPaCa cells; assay: LC3-II accumulation (autophagy) in pancreatic cancer cell lines, western blot; settings: 4 μM for 48 h
Description: (§2) (A) A panel of pancreatic cancer cell lines including MDA-Panc28, Capan-2, Bx-PC3, Panc1 and MIAPaCa cells were treated with Rottlerin (4 μM) for 48 h for the detection of LC3-II and TG2 expression by western blot. (B) MCF-7 cell line was also tested for LC3-II and TG2 expression by western blot. (C) Expression of TG2 in MDA-Panc28 cells was determined upon exposure to different treatments (D) Detection of autophagolysosomes; MDA-Panc28 cells were treated with either control siRNA, Rottlerin or TG2 siRNA for 48 h. Photomicrographs show morphological changes of the cells by phase contrast microscopy (left panels); acridine orange staining of the acidic vesicular organelles by fluorescent microscopy (center panels) and the localization LC3-II at autophagosomes in cells after transfection with GFP-LC3 plasmid (right panels). […]
as §1

MCF-7 cells = assay: LC3-II accumulation in TG2-negative MCF-7 cells; settings: MCF-7 (TG2-negative), optimal conditions
Description: as §2, §1

TG2 [3] = assay: TG2 expression in pancreatic cancer cell lines (western blot); settings: 4 μM for 48 h, all pancreatic cancer cell lines tested
Description: as §2, §1

Question: With CC(=O)c1c(O)c(C)c(O)c(Cc2c(O)c3c(c(C(=O)/C=C/c4ccccc4)c2O)OC(C)(C)C=C3)c1O [rottlerin] as the compound, how does the “inhibition of TG2 protein expression” value (TG2 [1]; 1 μM) read?
Answer: The value was 44%.

Question: What about the “inhibition of TG2 protein expression (maximum)” value (TG2 [1]; 4 μM) of the same compound?
Answer: The value was 94%.

Question: What about the “endogenous LC3-II accumulation” value [2] of the same compound?
Answer: Its value is “significant increase in endogenous LC3-II accumulation”.

Question: And the LC3-II accumulation (MCF-7 cells)?
Answer: The LC3-II accumulation was “failed to produce any increase in LC3-II accumulation”.

Question: And the TG2 expression (TG2 [3])?
Answer: The TG2 expression was “parallel decrease in TG2 expression”.
